# Values of other authors, collected in US6303615A, “2,3 disubstituded-4(3H)-quinazolinones” (Pfizer Inc, priority 1999, dated 2001).
# Tests used:
# [1] = reported in literature (Sheardown et al.; Buchan et al.; LePeillet et al.)
# [2] = reported in literature (LaPeillet et al.)
smiles,measurement,setting,value
"NS(=O)(=O)c1cccc2c1c([N+](=O)[O-])cc1[nH]c(=O)c(=O)[nH]c12 [NBQX, 2,3-dihydroxy-6-nitro-7-sulfamoylbenzo[f-]quinoxaline]",preventing global and focal ischemic damage,[1],effective
CC1=NN=C(c2ccc(N)cc2)c2cc3c(cc2C1)OCO3 [GKYI 52466],neuroprotection in rat global ischemia models,[2],effective neuroprotective agent
